Reference: PubChem BioAssay (NCI)
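A five-concentration, 48-hour dose response in 96-well plates underlies each endpoint, interpolated linearly between surrounding concentrations. The concentration for full growth arrest is given as TGI.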

Assays:
Test in all cases: growth of human tumour cells (NCI), 48 h
CAKI-1 renal = test system: CAKI-1 renal
NCI-H460 lung = test system: NCI-H460 lung
UO-31 renal = test system: UO-31 renal
COLO 205 colon = test system: COLO 205 colon
NCI-H226 lung = test system: NCI-H226 lung
HOP-62 NSCLC = test system: HOP-62 NSCLC
HCT-15 colon = test system: HCT-15 colon
SNB-75 CNS = test system: SNB-75 CNS
K-562 leukemia = test system: K-562 leukemia
MCF7 breast = test system: MCF7 breast
786-0 renal = test system: 786-0 renal
RPMI-8226 leukemia = test system: RPMI-8226 leukemia
OVCAR-8 ovarian = test system: OVCAR-8 ovarian
MDA-MB-231 breast = test system: MDA-MB-231 breast
BT-549 breast = test system: BT-549 breast
SF-295 CNS = test system: SF-295 CNS
CCRF-CEM leukemia = test system: CCRF-CEM leukemia
KM12 colon = test system: KM12 colon
DU-145 prostate = test system: DU-145 prostate
SF-539 CNS = test system: SF-539 CNS

Compound	TGI (CAKI-1 renal) [µM]	TGI (NCI-H460 lung) [µM]	TGI (UO-31 renal) [µM]	TGI (COLO 205 colon) [µM]	TGI (NCI-H226 lung) [µM]	TGI (HOP-62 NSCLC) [µM]	TGI (HCT-15 colon) [µM]	TGI (SNB-75 CNS) [µM]	TGI (K-562 leukemia) [µM]	TGI (MCF7 breast) [µM]	TGI (786-0 renal) [µM]	TGI (RPMI-8226 leukemia) [µM]	TGI (OVCAR-8 ovarian) [µM]	TGI (MDA-MB-231 breast) [µM]	TGI (BT-549 breast) [µM]	TGI (SF-295 CNS) [µM]	TGI (CCRF-CEM leukemia) [µM]	TGI (KM12 colon) [µM]	TGI (DU-145 prostate) [µM]	TGI (SF-539 CNS) [µM]
CC(C)CCCC(C)[C@H]1CC[C@H]2[C@@H]3CC[C@H]4C[C@@H](CCC=C(c5cc(Cl)c(O)c(C(=O)O)c5)c5cc(Cl)c(O)c(C(=O)O)c5)CC[C@]4(C)[C@H]3CC[C@]12C (stereo not given in full) (tested in a mixture with another compound)	> 50	> 50	27.2	> 50	> 50	> 50	> 50	> 50	> 50	> 50	> 50	> 50	> 50	> 50	> 50	> 50	> 50	> 50	> 50	> 50
CN(C)c1ccc(N=Nc2cccc3ncccc23)cc1	> 100	> 100	> 100	> 100	> 100	> 100	> 100	> 100	> 100	> 100	> 100	> 68.1	> 100	> 100	> 100	> 100	> 100	> 100	> 100	> 100
COC(=O)/C=C(/C(=O)OC)c1c(C)cc2c(C)cc(C)cc(C)c1-2	> 100	> 69.9	98.2	22.4	61.6	37.9	18.8	> 72.2	> 100	36.6	41.1	> 100	> 86.6	15.3	47.1	29.3	> 100	> 58.2	> 91.8	26.7
CC(=O)N1C2=CCCC2(C)c2ccccc21 (stereo not given)	> 100	> 100	> 100	> 100	> 100	> 100	> 100	> 100	> 100	> 100	> 100	45.6	> 100	> 100	> 100	> 100	> 100	> 100	> 100	> 100
COc1cc(-c2oc(C=Nc3ccccc3)c([N+](=O)[O-])c2-c2ccc(O)c(OC)c2)ccc1O	47.2	35.5	29.6	> 63.2	> 100	> 100	42.3	64.4	> 100	> 100	> 58.3	72.4	> 54.9	> 95.7	> 100	> 95.7	> 100	> 85.4	53.3	42.9
CN1CCN(CCCCN2c3ccccc3Sc3ccc(N=[N+]=[N-])cc32)CC1	22.1	17.4	21.8	3.51	31.7	33.8	23	16.2	4.07	9.75	22.6	5.61	29.8	15	26.9	27.9	7.75	20.8	26.6	20.4
Nc1cccc(C#Cc2cccc(C#Cc3cccc(N)n3)n2)n1	> 100	> 100	> 100	> 100	> 100	> 100	> 100	> 100	> 100	> 100	> 100	> 100	> 100	> 100	> 100	> 100	31.4	> 100	> 100	> 100
COC(=O)c1c(O)ccc2c1c1c(n2-c2ccc(OC)cc2)C(=O)c2ccccc2C1=O	66	61.7	31.1	3.52	73.3	34.5	> 100	51.5	> 100	72.4	29.1	> 100	33.7	32.7	84.9	44.1	> 100	77.8	48.3	29.9
O=C(OC(/C=C/c1ccccc1)P1(=O)N(Cc2ccccc2)[C@@H]2CCCC[C@H]2N1Cc1ccccc1)c1ccccc1 (stereo not given in full)	> 100	> 27.3	68.6	4.75	> 100	> 100	> 100	> 28.1	> 100	> 100	> 100	6.53	> 29.8	30.3	> 55.8	> 100	7.88	> 100	> 100	> 100
O/N=C1\CCc2cc3c(cc21)CCC3	> 100	> 100	> 100	> 100	> 100	> 100	> 100	> 100	> 100	> 100	> 100	> 100	> 100	> 100	> 100	> 100	> 100	> 100	> 100	> 100
Nc1ncc(CN2CCOCC2)c(-c2ccccc2O)n1	> 100	> 100	> 100	> 100	> 100	> 100	> 100	> 100	> 100	> 100	> 100	> 100	> 100	> 100	> 100	> 100	> 100	> 100	> 100	> 100
CC(=O)N1N=C(c2c(O)ccc3ccccc23)CC1c1ccc(Cl)cc1 (stereo not given)	> 100	48.1	93.4	39.2	> 100	37	> 100	> 100	43.3	35.1	> 100	45.8	> 100	43.5	51.1	54.2	25.7	29.9	> 100	37.4
Cc1nn(C(=O)Cc2ccccc2)c2c1C(c1ccccc1[N+](=O)[O-])SC(N)=N2 (stereo not given)	> 100	> 100	> 100	> 100	> 100	> 100	> 100	> 100	> 100	> 100	> 100	> 100	> 100	> 100	> 100	> 100	> 100	> 100	> 100	> 100
